Measured values: ChEMBL document CHEMBL5465560, “Selectivity Literature for EUbOPEN Chemogenomic Library” (2024)
One block for each molecule: values may come before it.

Experiments:
[1] = biological target: Phosphatidylinositol 4-phosphate 5-kinase type-1 alpha (Homo sapiens) (UniProt Q99755); test: Selectivity interaction (Ambit KINOMEscan and KiNATiv profiling in Jurkat cells) EUB0000090b PIP5K1A; type: cell-based; conditions: at 1 µM
[2] = biological target: Cyclin-dependent kinase 11B (Homo sapiens) (UniProt P21127); conditions: at 10 µM
Cyclin-dependent kinase 11B (Homo sapiens), sequence (P21127 whole entry): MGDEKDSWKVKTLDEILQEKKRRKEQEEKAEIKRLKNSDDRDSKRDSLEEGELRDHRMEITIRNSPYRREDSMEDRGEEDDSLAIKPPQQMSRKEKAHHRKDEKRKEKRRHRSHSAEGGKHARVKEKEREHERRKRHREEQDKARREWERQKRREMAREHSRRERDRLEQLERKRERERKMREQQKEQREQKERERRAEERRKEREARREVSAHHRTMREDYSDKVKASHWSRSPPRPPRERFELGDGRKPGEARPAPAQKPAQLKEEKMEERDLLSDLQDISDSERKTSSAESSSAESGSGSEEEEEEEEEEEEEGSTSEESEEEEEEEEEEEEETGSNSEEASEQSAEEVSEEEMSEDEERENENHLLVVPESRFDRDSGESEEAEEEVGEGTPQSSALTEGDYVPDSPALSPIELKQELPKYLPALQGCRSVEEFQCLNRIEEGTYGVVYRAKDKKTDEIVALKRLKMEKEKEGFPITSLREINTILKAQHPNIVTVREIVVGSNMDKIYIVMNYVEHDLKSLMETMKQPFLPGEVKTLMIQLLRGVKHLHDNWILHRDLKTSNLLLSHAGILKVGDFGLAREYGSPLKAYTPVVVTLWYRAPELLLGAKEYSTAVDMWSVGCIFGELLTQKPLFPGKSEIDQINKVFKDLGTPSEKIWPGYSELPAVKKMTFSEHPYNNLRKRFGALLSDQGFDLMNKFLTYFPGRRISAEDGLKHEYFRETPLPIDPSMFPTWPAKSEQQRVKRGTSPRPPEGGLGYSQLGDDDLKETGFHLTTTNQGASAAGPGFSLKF

[3] = biological target: T1, Mitogen-activated protein kinase kinase kinase 5 (Homo sapiens) (UniProt Q99683); test: Selectivity interaction (ActivX KiNativ screen (kinase selectivity in THP-1 cell lysates)) EUB0000639a MAP3K5; type: subcellular; conditions: lysate, at 0.2 µM
T1 sequence (whole entry): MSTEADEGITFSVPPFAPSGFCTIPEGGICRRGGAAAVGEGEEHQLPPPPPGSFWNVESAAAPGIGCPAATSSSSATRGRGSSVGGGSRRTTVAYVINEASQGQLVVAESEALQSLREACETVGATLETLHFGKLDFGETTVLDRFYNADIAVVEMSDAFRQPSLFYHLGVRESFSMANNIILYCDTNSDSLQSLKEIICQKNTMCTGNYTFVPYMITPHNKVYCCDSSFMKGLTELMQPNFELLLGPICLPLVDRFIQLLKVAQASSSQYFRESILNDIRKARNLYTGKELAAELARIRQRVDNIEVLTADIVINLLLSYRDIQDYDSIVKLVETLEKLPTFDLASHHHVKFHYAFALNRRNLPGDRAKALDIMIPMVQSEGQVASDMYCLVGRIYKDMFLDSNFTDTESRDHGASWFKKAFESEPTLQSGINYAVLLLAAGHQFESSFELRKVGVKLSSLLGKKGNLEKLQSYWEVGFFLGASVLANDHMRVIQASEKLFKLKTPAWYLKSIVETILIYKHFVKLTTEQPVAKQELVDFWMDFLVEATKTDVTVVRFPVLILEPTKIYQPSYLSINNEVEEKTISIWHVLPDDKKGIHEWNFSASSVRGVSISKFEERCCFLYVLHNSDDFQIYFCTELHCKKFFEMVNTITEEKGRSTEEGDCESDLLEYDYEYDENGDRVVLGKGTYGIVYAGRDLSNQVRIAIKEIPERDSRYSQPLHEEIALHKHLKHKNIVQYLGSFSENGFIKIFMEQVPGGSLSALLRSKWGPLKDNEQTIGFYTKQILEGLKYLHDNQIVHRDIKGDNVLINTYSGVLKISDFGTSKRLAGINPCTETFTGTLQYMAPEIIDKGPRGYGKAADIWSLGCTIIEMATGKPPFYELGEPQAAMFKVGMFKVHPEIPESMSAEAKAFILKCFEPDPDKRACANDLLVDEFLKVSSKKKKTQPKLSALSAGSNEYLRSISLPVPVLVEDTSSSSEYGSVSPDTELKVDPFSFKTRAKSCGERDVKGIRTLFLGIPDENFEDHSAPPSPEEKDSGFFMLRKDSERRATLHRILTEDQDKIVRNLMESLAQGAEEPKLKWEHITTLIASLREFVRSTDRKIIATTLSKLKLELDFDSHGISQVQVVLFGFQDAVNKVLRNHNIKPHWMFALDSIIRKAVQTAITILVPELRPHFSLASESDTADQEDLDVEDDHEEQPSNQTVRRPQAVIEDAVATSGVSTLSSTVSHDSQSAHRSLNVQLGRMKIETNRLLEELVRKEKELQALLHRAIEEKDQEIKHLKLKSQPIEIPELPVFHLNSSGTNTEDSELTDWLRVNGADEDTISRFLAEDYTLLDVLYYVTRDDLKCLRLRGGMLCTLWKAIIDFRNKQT

[4] = biological target: Bromodomain-containing protein 3 (Homo sapiens) (UniProt Q15059); test: Selectivity interaction (Bromodomain panel (DSF asssay)) EUB0000270b BRD3
Bromodomain-containing protein 3 (Homo sapiens), sequence (Q15059 2-726 limits assumed): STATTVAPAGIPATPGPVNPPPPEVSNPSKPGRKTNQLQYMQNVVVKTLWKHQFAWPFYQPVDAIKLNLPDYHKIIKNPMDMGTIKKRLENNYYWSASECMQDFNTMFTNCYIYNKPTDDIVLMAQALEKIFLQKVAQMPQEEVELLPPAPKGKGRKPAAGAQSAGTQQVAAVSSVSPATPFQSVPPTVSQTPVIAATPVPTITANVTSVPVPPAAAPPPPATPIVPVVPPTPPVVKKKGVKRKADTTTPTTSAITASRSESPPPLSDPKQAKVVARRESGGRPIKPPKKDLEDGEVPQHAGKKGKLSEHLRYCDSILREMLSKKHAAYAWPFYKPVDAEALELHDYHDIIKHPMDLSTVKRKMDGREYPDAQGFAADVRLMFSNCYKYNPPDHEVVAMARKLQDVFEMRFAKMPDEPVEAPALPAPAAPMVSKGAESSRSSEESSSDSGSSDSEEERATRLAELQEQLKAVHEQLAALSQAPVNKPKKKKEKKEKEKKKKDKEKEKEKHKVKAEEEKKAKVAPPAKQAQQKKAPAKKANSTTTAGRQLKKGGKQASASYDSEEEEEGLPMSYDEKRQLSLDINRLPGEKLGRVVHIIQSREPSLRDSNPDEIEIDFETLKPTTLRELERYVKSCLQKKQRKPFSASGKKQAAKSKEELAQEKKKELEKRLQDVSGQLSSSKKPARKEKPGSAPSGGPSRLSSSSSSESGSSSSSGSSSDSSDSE

[5] = biological target: T2, Alpha-1B adrenergic receptor (Homo sapiens) (UniProt P35368); test: Selectivity interaction (Panel of kinases, GPCRs, ion channels and transporters (enzymatic assay)) EUB0000266bCl ADRA1B
T2 sequence (whole entry): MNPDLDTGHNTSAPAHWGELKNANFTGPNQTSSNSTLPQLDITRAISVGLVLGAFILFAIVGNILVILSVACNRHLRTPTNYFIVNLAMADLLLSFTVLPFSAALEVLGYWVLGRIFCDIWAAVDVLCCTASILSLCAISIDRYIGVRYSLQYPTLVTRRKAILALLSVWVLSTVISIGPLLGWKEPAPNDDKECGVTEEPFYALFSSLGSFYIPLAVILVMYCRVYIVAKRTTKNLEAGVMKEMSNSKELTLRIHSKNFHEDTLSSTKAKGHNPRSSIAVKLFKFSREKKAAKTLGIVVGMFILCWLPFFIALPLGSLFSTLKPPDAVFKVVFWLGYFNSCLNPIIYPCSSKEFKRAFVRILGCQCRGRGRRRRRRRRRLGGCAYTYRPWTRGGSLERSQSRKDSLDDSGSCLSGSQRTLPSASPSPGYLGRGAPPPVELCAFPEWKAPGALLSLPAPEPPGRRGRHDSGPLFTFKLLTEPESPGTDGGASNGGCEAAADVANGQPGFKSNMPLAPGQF

[6] = biological target: Serine/threonine-protein kinase N2 (Homo sapiens, UniProt Q16513); test: Selectivity interaction (KinomeScan (DiscoverX)) EUB0000092b PKN2; conditions: at 10 µM
Serine/threonine-protein kinase N2, sequence (Q16513 whole entry, looked up): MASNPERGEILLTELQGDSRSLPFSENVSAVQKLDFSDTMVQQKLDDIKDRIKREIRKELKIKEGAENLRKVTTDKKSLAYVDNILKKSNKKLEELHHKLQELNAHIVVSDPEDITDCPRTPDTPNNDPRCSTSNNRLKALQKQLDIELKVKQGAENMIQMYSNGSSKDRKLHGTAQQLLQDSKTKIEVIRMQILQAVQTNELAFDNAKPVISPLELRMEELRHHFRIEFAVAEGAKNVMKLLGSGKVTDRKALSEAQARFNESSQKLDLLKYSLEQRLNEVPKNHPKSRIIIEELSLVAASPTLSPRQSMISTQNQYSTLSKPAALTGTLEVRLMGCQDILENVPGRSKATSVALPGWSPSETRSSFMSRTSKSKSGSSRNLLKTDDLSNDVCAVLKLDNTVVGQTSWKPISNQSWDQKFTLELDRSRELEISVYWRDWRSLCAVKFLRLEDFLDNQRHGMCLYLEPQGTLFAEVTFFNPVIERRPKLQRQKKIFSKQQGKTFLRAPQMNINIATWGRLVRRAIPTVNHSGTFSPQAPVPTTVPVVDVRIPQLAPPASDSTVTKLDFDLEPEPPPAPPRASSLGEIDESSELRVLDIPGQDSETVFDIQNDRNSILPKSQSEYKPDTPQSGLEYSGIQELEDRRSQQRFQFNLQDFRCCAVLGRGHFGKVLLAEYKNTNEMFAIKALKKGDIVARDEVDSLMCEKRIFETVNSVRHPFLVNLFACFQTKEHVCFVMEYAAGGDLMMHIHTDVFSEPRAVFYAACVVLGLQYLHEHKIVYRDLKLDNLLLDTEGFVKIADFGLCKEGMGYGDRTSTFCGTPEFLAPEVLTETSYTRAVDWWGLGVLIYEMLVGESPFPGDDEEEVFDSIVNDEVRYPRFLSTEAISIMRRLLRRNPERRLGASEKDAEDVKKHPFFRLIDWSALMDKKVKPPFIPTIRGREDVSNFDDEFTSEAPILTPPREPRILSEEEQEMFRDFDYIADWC

[7] = biological target: G protein-coupled receptor kinase 5 (Homo sapiens, UniProt P34947); test: Selectivity interaction (Kinase panel (Z-LYTE Assay)) EUB0001632a GRK5; conditions: at 10 µM
G protein-coupled receptor kinase 5, sequence (P34947 whole entry, looked up): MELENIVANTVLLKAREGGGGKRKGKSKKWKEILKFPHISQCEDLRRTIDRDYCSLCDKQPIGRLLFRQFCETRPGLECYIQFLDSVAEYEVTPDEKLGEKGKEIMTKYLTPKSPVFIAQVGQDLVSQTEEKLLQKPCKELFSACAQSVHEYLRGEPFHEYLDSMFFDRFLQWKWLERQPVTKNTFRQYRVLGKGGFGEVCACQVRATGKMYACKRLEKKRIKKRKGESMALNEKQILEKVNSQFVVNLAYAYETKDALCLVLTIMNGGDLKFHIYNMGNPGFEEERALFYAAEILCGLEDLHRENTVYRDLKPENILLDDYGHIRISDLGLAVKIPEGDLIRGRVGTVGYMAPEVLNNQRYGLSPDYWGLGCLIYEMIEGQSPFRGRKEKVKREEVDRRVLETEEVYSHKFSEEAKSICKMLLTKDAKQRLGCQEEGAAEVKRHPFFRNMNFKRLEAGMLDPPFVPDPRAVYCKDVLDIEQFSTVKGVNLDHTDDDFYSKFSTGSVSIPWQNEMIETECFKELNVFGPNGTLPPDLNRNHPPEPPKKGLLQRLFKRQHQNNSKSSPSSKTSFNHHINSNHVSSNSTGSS

Phosphatidylinositol 4-phosphate 5-kinase type-1 alpha (Homo sapiens), sequence (Q99755 whole entry): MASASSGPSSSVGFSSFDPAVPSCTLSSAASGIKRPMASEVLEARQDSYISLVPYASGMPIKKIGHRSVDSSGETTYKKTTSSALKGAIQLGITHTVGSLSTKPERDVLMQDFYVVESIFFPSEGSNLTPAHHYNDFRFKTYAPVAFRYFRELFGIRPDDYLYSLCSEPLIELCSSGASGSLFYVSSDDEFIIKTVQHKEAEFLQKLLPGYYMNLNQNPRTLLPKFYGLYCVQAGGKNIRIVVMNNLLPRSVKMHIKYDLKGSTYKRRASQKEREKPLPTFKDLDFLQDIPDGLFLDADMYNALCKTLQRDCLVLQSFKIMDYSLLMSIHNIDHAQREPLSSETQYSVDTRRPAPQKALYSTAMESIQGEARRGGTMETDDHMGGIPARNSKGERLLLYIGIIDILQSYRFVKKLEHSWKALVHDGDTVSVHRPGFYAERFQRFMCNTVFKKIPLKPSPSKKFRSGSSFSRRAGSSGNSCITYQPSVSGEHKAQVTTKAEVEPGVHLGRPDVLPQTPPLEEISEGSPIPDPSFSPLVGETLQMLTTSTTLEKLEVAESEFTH

Structure (SMILES): CN(C)C/C=C/C(=O)Nc1ccc(C(=O)N2CCCC(Nc3ncc(Cl)c(-c4c[nH]c5ccccc45)n3)C2)cc1 (configuration not stated)
% of control [1]: 78%

Structure (SMILES): Cc1cc([C@@H](C)Nc2ccccc2C(=O)O)c2nc(N3CCOCC3)cc(=O)n2c1 [AZD-6482]
% of control [2]: 100%

% of inhibition [3]: -11.2%
Structure (SMILES): CC[C@@H]1[C@H](F)C(=O)N[C@@H]1COc1nccc2cc(C(N)=O)c(OC)cc12 [ZIMLOVISERTIB]

dTM [4]: -3.97 K
Structure (SMILES): Cc1cc(CN)cc(C)c1-c1ncn(C)c1-c1cncn1C

pXC50 [5]: 5.4 M
Structure (SMILES): CCn1c(-c2nc3cc(C(=O)N4CCCC(N)C4)ccc3n2C)cc2ccccc21 (configuration not stated)

Structure (SMILES): CCC(=O)N1CCN(c2ccc(-n3c(=O)ccc4cnc5ccc(-c6cnc7ccccc7c6)cc5c43)cc2C(F)(F)F)CC1
% of control [6]: 65%

% of control [7]: -0.027%
Structure (SMILES): Cn1cc(-n2cnc3c(NCc4nc5cc(Cl)c(Cl)cc5[nH]4)nc(N4CCOCC4)nc32)cn1
